In one assay the target is T1, hDGAT1 (Homo sapiens, UniProt O75907).
T1 construct: host or cells: Sf9 insect cells (baculovirus); microsomal preparation
T1 sequence (O75907 1-488): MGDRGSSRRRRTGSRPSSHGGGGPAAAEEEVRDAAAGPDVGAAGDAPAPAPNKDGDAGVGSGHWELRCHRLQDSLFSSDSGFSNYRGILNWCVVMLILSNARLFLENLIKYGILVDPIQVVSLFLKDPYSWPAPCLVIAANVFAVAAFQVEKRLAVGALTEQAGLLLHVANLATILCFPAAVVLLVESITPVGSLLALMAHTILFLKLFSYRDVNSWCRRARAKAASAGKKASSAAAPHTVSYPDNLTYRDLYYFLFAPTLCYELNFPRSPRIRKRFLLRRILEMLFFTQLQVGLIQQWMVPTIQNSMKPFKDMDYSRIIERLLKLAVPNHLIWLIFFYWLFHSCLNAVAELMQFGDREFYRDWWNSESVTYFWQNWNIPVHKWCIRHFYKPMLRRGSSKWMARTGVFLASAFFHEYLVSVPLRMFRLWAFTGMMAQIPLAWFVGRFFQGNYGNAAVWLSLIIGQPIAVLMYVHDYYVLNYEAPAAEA
Kind of assay: In-vitro DGAT1 assay (hDGAT1 microsomes from Sf9 cells, 14C oleoyl CoA, triglyceride formation). In kind it is biochemical. Conditions: At 1 μM. The procedure: In-vitro Protocol for DGAT1 Assay
Sf9 Culture and Treatment
Sf9 cells were grown in T25 flasks containing Graces's Insect media with 10% FBS with antibiotic (100 units/mL penicillin, 100 μg/mL streptomycin sulphate, 0.25 μg/mL Amptotericin B as Fungizone) grown in a 27° C. incubator:
hDGAT1ORF expression clone (RZPDo839C09146 in pDEST vector) was obtained from RZPD, Germany. hDGAT1 bacmid DNA was obtained by transformation of the hDGAT expression clone into DH10Bac E. coli competent cells. Approximately 1 μg of hDGAT1 bacmid DNA was infected into Sf9 cells with Cellfectin (Invitrogen) reagent. Following infection, Sf9 cells were incubated at 27° C. for 30 minutes. Five hours after infection, the media was replaced with growth media containing antibiotic (100 units/mL penicillin, 100 μg/mL streptomycin sulphate, 0.25 μg/mL Amptotericin B as Fungizone) and incubated at 27° C. for 72 hours. The supernatant containing the virus was centrifuged at 1500×g for 5 minutes, passed through 0.22 μm filter, and subsequently stored at 4° C. The virus was further amplified three more times by re-infection of Sf9 cells and the viral titer was determined by plaque assay.
Preparation of DGAT1 Microsomes from Sf9 Cells
Sf9 cells were seeded in spinner flasks on day 0 at a cell density of 1×10^6 and infected on day 1 with hDGAT1 baculovirus at a multiplicity of infection (MOI) of 5 and a cell density of 2×10^6. On day 3 (or 66-72 hours), cells were harvested and centrifuged at 2500×g for 10 minutes. Pellet was resuspended in lysis buffer (100 mM sucrose, 50 mM KCl, 40 mM KH2PO4, 30 mM EDTA, pH 7.2) and passed through 21-gauge needle approximately 10 times. The mixture was centrifuged at 12,000 rpm in a Sigma 12158-H rotor at 4° C. for 30 minutes. The supernatant was subjected to centrifugation at 35,000 rpm in a Beckman Ti-45 rotor at 4° C. for 1 hour. The resultant pellet containing the microsomes were resuspended overnight in 1 mL of lysis buffer and total protein concentration was estimated using Bradford Reagent. Microsomes were aliquoted and stored at −20° C.
Measurement of DGAT1 Activity
Frozen aliquots of hDGAT1 containing microsomes were thawed (5-10 mg/mL total protein) on ice and diluted to a working stock of 1 mg/mL with DGAT Assay Buffer (DAB). The DGAT reaction assay was performed by following the procedure described in U.S. Pat. No. 6,607,893 with some modifications that are described below.
Preparation of DGAT1 substrate mixture: 1 mL stock solution of DGAT1 substrate mixture contains (i) 5.6 μL of ^14C oleoyl CoA (16.8 nCi) and 35 μL 1,2-dioleoyl-sn-glycerol (409.5 μM) or (ii) 5.6 μL of ^14C oleoyl CoA (16.8 nCi) and 105 μL 1,2-dioleoyl-sn-glycerol (1228.5 μM) or (iii) 5.6 μL of ^14C oleoyl CoA (16.8 nCi) and 140 μL 1,2-dioleoyl-sn-glycerol (1638 μM).
1,2-sn-dioleoylglycerol substrate concentration in the 1 mL stock solution of DGAT1 substrate mixture was varied depending on the microsome concentration used in the assay reaction. 1,2-dioleoyl-sn-glycerol stock (19.5 mM) was prepared by dissolving 25 mg of 1,2-dioleoyl-sn-glycerol (Sigma, US) in 2060 μL of acetone. The assay was performed in duplicates in a reaction volume of 100 μL. The reaction volume consisted of: • (i) 27.5 μL of DGAT assay buffer (0.25M Sucrose, 1 mM EDTA (pH 8.0), 150 mM Tris-HCl, pH 7.4, 1.25 mg/mL, fatty acid free BSA), • (ii) 10 μL of compound, of present invention or standard (dissolved in DMSO and diluted to 10× with DAB and screened at 10 μM, 5 μM and 1 μM), • (iii) 60 μL DGAT1 substrate mixture taken from a 1 mL stock (16.8 nCi of ^14C oleoyl CoA and 409.5 μM or 1228.5 μM or 1638 μM of 1,2-dioleyl-sn-glycerol), • (iv) 2.5-10 μL of 1 mg/mL of microsomes (the amount of assay buffer was varied depending upon the concentration of microsome to make up the volume to 100 μL). Procedure:
The reaction was started by the addition of 2.5-10 μL of 1 mg/mL of microsomes (iv) to a mixture of (i), (ii) and (iii), vortexed and incubated at 37° C. for 10 minutes. […]
By inhibition is commonly meant the drop in the measured response relative to a control, in per cent. Read a high inhibition as a strong effect. In the case of `CC(C)[C@H](NC(=O)c1cc(-c2ccc(NC(=O)Nc3ccccc3C(F)(F)F)cc2)no1)C(=O)O` [Example 164, (S)-3-methyl-2-(3-(4-(3-(2-(trifluoromethyl)phenyl)ureido)phenyl)isoxazole-5-carboxamido)butanoic acid], the inhibition at 1 µM is 75 to 100%.

The compound `CC(C)C(NC(=O)c1cc(-c2ccc(OCc3cccc(C(F)(F)F)c3)cc2)no1)C(=O)O` (centres unmarked) [Example 326, 3-Methyl-2-(3-(4-(3-(trifluoromethyl)benzyloxy)phenyl)isoxazole-5-carboxamido)butanoic acid] registered an inhibition at 1 µM of 0 to 50%.

The compound `CC(C)[C@@H](NC(=O)c1cc(-c2ccc(NS(=O)(=O)c3cc(F)cc(F)c3)cc2)no1)C(=O)O` [Example 320, (R)-2-(3-(4-(3,5-Difluorophenylsulfonamido)phenyl)isoxazole-5-carboxamido)-3-methylbutanoic acid] showed an inhibition at 1 µM of 0 to 50%.

`CC(C)[C@H](NC(=O)c1cc(-c2ccc(NC(=O)Nc3ccc(Oc4ccccc4)cc3)cc2)no1)C(=O)O` [Example 240, (S)-3-Methyl-2-(3-(4-(3-(4-phenoxyphenyl)ureido)phenyl)isoxazole-5-carboxamido)butanoic acid] had an inhibition at 1 µM of 75 to 100%.

Compound `COC(=O)[C@H](NC(=O)c1cc(-c2ccc(NS(=O)(=O)c3c(F)cccc3F)cc2)no1)C(C)C` [Example 316, (R)-Methyl 2-(3-(4-(2,6-difluorophenylsulfonamido)phenyl)isoxazole-5-carboxamido)-3-methylbutanoate] had an inhibition at 1 µM of 0 to 50%.

In turn, `Cc1ccc(F)cc1NC(=O)Nc1ccc(-c2cc(C(=O)NC(C(=O)O)C(C)C)on2)cc1` (centres unmarked) [Example 252, 2-(3-(4-(3-(5-Fluoro-2-methylphenyl)ureido)phenyl)isoxazole-5-carboxamido)-3-methylbutanoic acid] showed an inhibition at 1 µM of 75 to 100%.

`Cc1ccc(NC(=O)Nc2ccc(-c3nc(C(=O)N[C@H](C(=O)O)C(C)C)cs3)cc2)cc1C` [Example 363, (S)-2-(2-(4-(3-(3,4-dimethylphenyl)ureido)phenyl)thiazole-4-carboxamido)-3-methylbutanoic acid] gave an inhibition at 1 µM of 0 to 50%.

`COC(=O)[C@H](C(C)C)N(C)C(=O)c1cc(-c2ccc(NC(=O)Nc3ccccc3F)cc2)no1` [Example 305, (S)-Methyl 2-(3-(4-(3-(2-fluorophenyl)ureido)phenyl)-N-methylisoxazole-5-carboxamido)-3-methylbutanoate] showed an inhibition at 1 µM of 50 to 75%.

The assay is the same for the next values; noted with them: At 5 μM.
In turn, `O=C(Nc1ccc(-c2cc(C(=O)NC(Cc3ccccc3)C(=O)O)on2)cc1)Nc1ccc(F)cc1F` (centres unmarked) [Example 246, 2-(3-(4-(3-(2,4-Difluorophenyl)ureido)phenyl)isoxazole-5-carboxamido)-3-phenylpropanoic acid] had an inhibition at 5 µM of 50 to 75%.

Still in this assay, the particulars now being: At 10 μM.
As for `CC(C)CC(NC(=O)c1cc(-c2ccc(NC(=O)Nc3ccc(F)cc3F)cc2)no1)C(=O)O` (centres unmarked) [Example 114, 2-(3-(4-(3-(2,4-Difluorophenyl)ureido)phenyl)isoxazole-5-carboxamido)-4-methylpentanoic acid], the inhibition at 10 µM lay in the range of 75 to 100%.

`CC(C)C[C@H](NC(=NO)c1cc(-c2ccc(Nc3nc4ccc(F)cc4s3)cc2)no1)C(=O)O` [Example 51, (S)-2-({3-[4-(6-Fluoro-benzothiazol-2-ylamino)-phenyl]-N-hydroxy-isoxazole-5-carboximidoyl}-amino)-4-methyl-pentanoic acid] registered an inhibition at 10 µM of 0 to 50%.

Compound `CC(C)[C@H](NC(=S)c1cc(-c2ccc(Nc3nc4ccc(F)cc4s3)cc2)no1)C(=O)O` [Example 45, (S)-2-({3-[4-(6-Fluoro-benzothiazol-2-ylamino)-phenyl]-isoxazole-5-carbothioyl}-amino)-3-methyl-butyric acid] yielded an inhibition at 10 µM of 50 to 75%.

Compound `COC(=O)[C@H](CC(C)C)NC(=O)c1onc(-c2ccc(NC(=O)Nc3ccccc3)cc2)c1-c1ccccc1` [Example 90, (S)-4-Methyl-2-({4-phenyl-3-[4-(3-phenyl-ureido)-phenyl]-isoxazole-5-carbonyl}-amino)-pentanoic acid methyl ester] had an inhibition at 10 µM of 0 to 50%.

As for `CC(C)[C@@H](NC(=S)c1cc(-c2ccc(Nc3nc4ccc(F)cc4s3)cc2)no1)C(=O)O` [Example 43, (R)-2-({3-[4-(6-Fluoro-benzothiazol-2-ylamino)-phenyl]-isoxazole-5-carbothioyl}-amino)-3-methyl-butyric acid], the inhibition at 10 µM lay within 50 to 75%.

`COC(=O)C(C)NC(=O)c1cc(-c2ccc(NC(=O)Nc3ccc(F)cc3)cc2)no1` (centres unmarked) [Example 115, Methyl 2-(3-(4-(3-(4-fluorophenyl)ureido)phenyl)isoxazole-5-carboxamido)propanoate]: the inhibition at 10 µM was 0 to 50%.

As to `COC(=O)[C@H](NC(=S)c1cc(-c2ccc(Nc3nc4ccc(F)cc4s3)cc2)no1)C(C)C` [Example 39, (R)-2-({3-[4-(6-Fluoro-benzothiazol-2-ylamino)-phenyl]-isoxazole-5-carbothioyl}-amino)-3-methyl-butyric acid methyl ester], the inhibition at 10 µM is 0 to 50%.

Consider `COC(=O)C(NC(=O)c1cc(-c2ccc(NC(=O)NCc3ccccc3)cc2)no1)C(C)C` (centres unmarked) [Example 107, Methyl 2-(3-(4-(3-benzylureido)phenyl)isoxazole-5-carboxamido)-3-methylbutanoate], for which the inhibition at 10 µM was in the range of 0 to 50%.

For `COC(=O)[C@@H](NC(=O)c1cc(-c2ccc(NC(=O)Nc3ccc(F)cc3)c(F)c2)no1)C(C)C` [Example 96], the “% inhibition of hDGAT1” value was “++ (>50% Inhibition ≦75)”.

For `Cc1cc(-c2cc(C(=O)NC(C)C(=O)O)on2)ccc1NC(=O)Nc1c(F)cccc1F` (centres unmarked) [Example 102, 2-(3-(4-(3-(2,6-Difluorophenyl)ureido)-3-methylphenyl)isoxazole-5-carboxamido)propanoic acid], the inhibition at 10 µM fell in the range of 0 to 50%.

With `Cc1cc(NC(=O)Nc2ccc(F)cc2)ccc1-c1cc(C(=O)NC(C(=O)O)C(C)C)on1` (centres unmarked) [Example 134, 2-(3-(4-(3-(4-fluorophenyl)ureido)-2-methylphenyl)isoxazole-5-carboxamido)-3-methylbutanoic acid], the inhibition at 10 µM is 75 to 100%.

The values above are taken from patent publication US8835428B2, “Diacylglycerol acyltransferase inhibitors” (Piramal Enterprises Limited, priority 2008, dated 2014).
